In patent US20260151398A1, “COMPOUNDS FOR REDUCING CHOLESTEROL AND TREATING LIVER AND KIDNEY DISEASE” (McMaster University, priority 2021, published 2026):
“Also recorded” adds a separate entry of the source.

What was measured:
[1] = tested on: PCSK9; assay: PCSK9 secretion from cultured and primary hepatocytes (ELISA of medium); type: cell-based, human, mouse; settings: for PCSK9 secretion with Ca2+-modulating agents: ELISA of medium
Protocol: HuH7 and HepG2 cells were routinely grown in complete Dulbecco's Modified Eagle's Medium (Gibco, Thermofisher Scientific) supplemented with 10% fetal bovine serum (Sigma-Aldrich) and 100 U/ml of penicillin and streptomycin (Sigma-Aldrich). […] All cell treatments were carried out for 24 h unless otherwise stated. Cells were transfected with a cocktail consisting of plasmid DNA (1 μg), X-tremeGENE HP (3 μl; Thermofisher Scientific) and opti-MEM (100 μl; Thermofischer Scientific) per 1 ml complete medium containing plated cells. Human PCSK9 was overexpressed using the bicistronic pIRES-EGFP plasmid; calnexin using the mPA-GFP-N1 plasmid. To block the expression of GRP78 and CD36, siGENOME smartpool siRNA was purchased from GE Dharmacon (M-008198-02 and L-010206-00-0005 respectively) and transfected using lipofectamine RNAiMAX as per manufacturer's protocol.
Secreted PCSK9 levels were assessed directly in cell culture medium of cells grown in FBS-free medium for 24 h or in the serum isolated from either mice or human subjects. Mouse PCSK9 was measured using the Quantikinine® ELISA kit (#MCP900, R&D Systems) and human PCSK9 using the PCSK9 Quantikinine® ELISA kit (#DCP900, R&D Systems). Serum ApoB levels were also quantified using ELISAs (#DAPB00, R&D Systems). Serum samples were diluted as per manufacturer's instructions.
All animal studies were carried out in 8 h-fasted male wild-type, Pcsk9^−/− or Ampkβ1^−/− mice on the C57BL/6J background. CF (25-100 mg/kg-8 h) and CDN (50 mg/kg) treatments were administered via intraperitoneal injection unless specified otherwise. Primary mouse hepatocytes were isolated using a two-step process with EGTA ([…] in HEPES buffer, Sigma Aldrich) and collagenase (0.05% in HEPES buffer, Sigma Aldrich) in 12-week-old male mice on the C57BL/6J background. Cells were then washed, centrifuged, and plated following isolation in cell strainers. Hepatosure® 100-donor pooled primary human hepatocytes were purchased from Xenotech. Primary hepatocytes were regularly grown in William's E medium (Gibco, Thermo Fisher Scientific) containing 10% fetal bovine serum, 100 IU/ml penicillin, and 100 µg/ml streptomycin.

[2] = tested on: SREBP2; assay: SREBP2 expression and activation in hepatocytes (real-time PCR, SRE-GFP reporter, immunoblot, immunofluorescence); type: cell-based, human, mouse; settings: for activation and nuclear localization of SREBP2: immunoblots of whole-cell lysates
Protocol: Cells were washed in phosphate-buffered saline (PBS), lysed in 4× SDS-PAGE lysis buffer and separated on 7-10% polyacrylamide gels in denaturing conditions. Gels were transferred to nitrocellulose membranes using the BioRad mini trans-blot system, blocked in 5% skim milk in tris-buffered saline (TBS) for 1 h and incubated in primary antibody overnight for 16 h at 4° C. Membranes were then exposed to horse radish peroxidase conjugated secondary antibodies and visualized using EZ-ECL chemiluminescent reagent (Froggabio). Band intensities were quantified using ImageJ software ([…]) against membranes reprobed for housekeeping proteins.
Cells were plated in 4-well chamber slides and incubated in complete DMEM for 24 h and exposed to treatments 24 h later for an additional 24 h. Cells were fixed with 4% paraformaldehyde for 30 minutes and washed with either non-permeabilizing, or permeabilizing PBS containing 0.025% Triton-X. Cells were then blocked with 1% bovine serum albumin (BSA) for 30 minutes and stained with anti-GFP antibody for 1 h in PBS containing 1% BSA. Afterwards, cells were washed and incubated with Alexa 488 fluorescently-labelled secondary antibodies (Thermofisher Scientific), as well as the DAPI nuclear stain. Slides were then mounted with permafluor and visualized using the EVOS FL colour imaging system at either 20 or 40× magnification.
RNA purification/isolation was performed using RNeasy mini kits (Qiagen) and normalized to 2 μg RNA using a NanoDrop® spectrophotometer. Samples were then reverse transcribed into cDNA using Superscript Vilo cDNA Synthesis kit (Thermofisher Scientific). Real-time PCR was executed with Fast SYBR Green (Thermo Fisher Scientific) using the ΔΔct method on the ViiA7 real-time PCR platform (Thermofisher Scientific).
Therefore, the effect of CF on TG-; induced SREBP2 activation was examined. […] SREBP2 activity was then examined at the protein level in HuH7 cells transfected with a plasmid encoding GFP driven by the sterol regulatory element (SRE-GFP; FIG. 2E to G). […] GFP expression was also visualized via immunofluorescent staining and quantified using ImageJ Software.

SMILES | PCSK9 secretion with Ca2+-modulating agents [1] | activation and nuclear localization of SREBP2 [2] | PCSK9 secretion ([1]; HuH7, HepG2, PMH, PHH, listed as CF) | re-localization of SREBP2 to the nucleus ([2]; HuH7, TG-treated, immunofluorescence) | nuclear SREBP2 (nSREBP2) and SRE-driven GFP expression ([2]; HuH7 transfected with SRE-GFP, presence and absence of TG, listed as CF) | SREBP2 expression ([2]; PMH, PHH, HepG2, real-time PCR)
Cc1ccc2cccc(NC(=O)c3ccc(OC(C)C)cc3)c2n1 [CDN] | blocked PCSK9 secretion | antagonized the activation and nuclear localization of SREBP2 | – | – | – | –
Cn1c(=O)c2c(ncn2C)n(C)c1=O [caffeine, 1,3,7-Trimethylxanthine] | – | antagonized the activation and nuclear localization of SREBP2 | blocked the secretion of PCSK9; also recorded: blocks PCSK9 expression and secretion | attenuated the re-localization of SREBP2 | blocked the nuclear/activated isoform of SREBP2; also recorded: blocks SREBP2 activation | blocked the expression of SREBP2
C/C=C(/C)C(=O)O[C@H]1C(C)=C2[C@H]([C@@H]1OC(=O)CCCCCCC)[C@@](C)(OC(C)=O)C[C@H](OC(=O)CCC)[C@@]1(O)[C@H]2OC(=O)[C@@]1(C)O [TG, thapsigargin] | blocked PCSK9 secretion | opposite effect | – | – | – | –
